PMC11012064, “Synthesis of Antiprotozoal 2-(4-Alkyloxyphenyl)-Imidazolines and Imidazoles and Their Evaluation on Leishmania mexicana and Trypanosoma cruzi” (International Journal of Molecular Sciences, 2024)

Tests used:
[1] = system: L. mexicana promastigotes; assay: Metabolic inhibition of Leishmania mexicana promastigotes, fluorometric analysis with resazurin; type: cell-based; settings: for SI (CC50/IC50) L. mexicana: CC50 macrophages J774 / IC50 L. mexicana promastigotes; for IC50: Leishmania mexicana, 48 h, read-out: L. mexicana Promastigotes IC50, promastigotes, 24 h + 24 h resazurin, 27 °C, confidence interval (Probit) in parentheses, triplicate; for activity on L. mexicana (in words): promastigotes, in vitro
Procedure: A promastigote culture of L. mexicana was harvested in the stationary phase after 7 days of growth in culture. To each well of a sterile 96-well microplate, 5 × 10^5 promastigotes and the compound to be assessed (or the reference drug) were added to a final volume of 100 μL in RPMI culture medium supplemented with 10% SFB and 1% ampicillin/streptomycin. Each compound was examined at different concentrations, obtained by serial two-fold dilutions starting from 50 μg/mL. […] Promastigotes with 0.5% DMSO (at the vehicle concentration of the greatest dilution of the compound) served as the positive viability control and amphotericin B at a final concentration of 5 μg/mL served as the negative viability control. Each condition was assayed in triplicate.
After 24 h of incubation, 10 μL of 0.01% resazurin was added to each of the wells and incubation continued for another 24 h under the same conditions. The plate was read via a fluorometer (Spectramax M3, Molecular Devices, LLC, San Jose, CA, USA) at 544 nm excitation and 590 nm emission. Each treated well was compared to the positive viability control, and metabolic inhibition was expressed as a percentage. The IC50 value was determined with the Probit statistical tool version 4.1 [31, 32, 33].
Resazurin is a blue, permeable, and non-fluorescent compound. Upon entering cells, it is reduced to resorufin due to the reducing environment of the cytosol in living cells. Resorufin is red and highly fluorescent. The number of living cells is proportional to the fluorescence intensity of resorufin [31].

[2] = Cytotoxic effect on macrophages, resazurin; type: cell-based, murine; settings: mouse, J774A.1 macrophages; J774A.1 murine macrophages, 20 h + 4 h resazurin; confidence interval (Probit) in parentheses; triplicate; read-out: Macrophages J774 CC50
Procedure: (§1) The microplate was incubated at 37 °C with 5% CO2 and humidity for 24 h to allow for the formation of a cell monolayer with a confluence of 80%. Subsequently, a concentration–response evaluation was carried out. Briefly, one of the compounds at the corresponding concentration was placed in each well with macrophages. […] As the negative cytotoxicity control, cells were exposed to 1% DMSO. The microplate was incubated at 37 °C with 5% CO2 and humidity for 20 h. Afterwards, 10 μL of 0.01% resazurin was added and the microplate was incubated for 4 h. As mentioned above, the microplate was read via a fluorometer at 544 nm excitation and 590 nm emission. Each treated well was compared to the negative cytotoxicity control and the data were expressed as a percentage of metabolic inhibition. The Probit statistical tool was used to calculate the CC50.

[3] = system: T. cruzi INC-5 epimastigotes; assay: Metabolic inhibition of Trypanosoma cruzi INC-5 epimastigotes, colorimetric analysis with MTT; type: cell-based; settings: for SI (CC50/IC50) T. cruzi: CC50 macrophages J774 / IC50 T. cruzi INC-5 epimastigotes; for IC50: Trypanosoma cruzi, 24 h, 24 h + 20 h MTT, 27 °C, confidence interval (Probit) in parentheses, triplicate; for IC50 / activity on T. cruzi (in words): epimastigotes; for activity on T. cruzi (in words): in vitro
Procedure: Epimastigotes of T. cruzi INC-5 were harvested after 7 days of growth in culture. […] The microplate was incubated in the dark at 27 °C for 24 h. Epimastigotes with 0.5% DMSO served as the positive viability control and the reference drugs nifurtimox ([…], Bayer, Germany) and benznidazole (Rochagan, Roche, Brazil) served as the negative viability control. Each condition was assayed in triplicate. Upon completion of the incubation time, 10 μL of MTT solution at 5 mg/mL was added to each well, and incubation continued in the dark at 27 °C for 20 h. Then, 100 μL of a solution containing 10% SDS and 0.01 M HCl was added to stop the reaction. […] The plates were read on a spectrophotometer (Spectramax Plus, Molecular Devices) at an absorbance of 570 nm. The result found in each well with a given concentration of the respective compound was compared to the positive viability control and the metabolic inhibition was expressed as a percentage. The IC50 was determined using the Probit statistical tool. MTT is a yellow, water-soluble compound. In living cells, […] is captured and reduced to its insoluble form (formazan, which is purple) by mitochondrial succinate dehydrogenase. The quantity of living cells is proportional to the amount of formazan produced.

J774A.1 macrophages = assay: Cytotoxic effect on macrophages, resazurin; type: cell-based, murine; settings: murine macrophage cell line
Procedure: as §1

| SMILES | SI (CC50/IC50) L. mexicana [1] | IC50 [1] [µg/mL] | CC50 [2] [µg/mL] | SI (CC50/IC50) T. cruzi [3] | IC50 [3] [µg/mL] | activity on T. cruzi (in words) [3] | cytotoxic effect on macrophages (in words) (J774A.1 macrophages) | melting point [°C] | activity on L. mexicana (in words) [1] |
| --- | --- | --- | --- | --- | --- | --- | --- | --- | --- |
| C[C@@H]1[C@H](O)[C@@H](C)/C=C/C=C/C=C/C=C/C=C/C=C/C=C/[C@H](O[C@@H]2O[C@H](C)[C@@H](O)[C@H](N)[C@@H]2O)C[C@@H]2O[C@](O)(C[C@@H](O)C[C@@H](O)[C@H](O)CC[C@@H](O)C[C@@H](O)CC(=O)O[C@H]1C)C[C@H](O)[C@H]2C(=O)O [AmB, amphotericin, reference compound] | 253.26 | 0.19 | 48.1 |  |  |  |  |  |  |
| O=C(Cn1ccnc1[N+](=O)[O-])NCc1ccccc1 [Bnz, benznidazole, reference compound] |  |  | 91.6 | 8.31 | 11 |  |  |  |  |
| CC1CS(=O)(=O)CCN1/N=C/c1ccc([N+](=O)[O-])o1 (stereo not drawn) [Nfx, nifurtimox, reference compound] |  |  | 57.8 | 23.10 | 2.5 |  |  |  |  |
| COc1ccc(C2=NCCN2)cc1 [compound 22, 2-(4-Methoxyphenyl)-4,5-dihydro-1H-imidazole] | >6.23 | 16 | > 100 |  | > 50 | inactive | least cytotoxic effect |  |  |
| CCOc1ccc(C2=NCCN2)cc1 [compound 23, 2-(4-Ethoxyphenyl)-4,5-dihydro-1H-imidazole] | >13.12 | 7.62 | > 100 |  | > 50 | inactive | least cytotoxic effect | 180 to 182 |  |
| CCCOc1ccc(C2=NCCN2)cc1 [compound 24, 2-(4-Propyloxyphenyl)-4,5-dihydro-1H-imidazole] |  |  |  |  |  |  |  | 121 to 122 |  |
| CC(C)Oc1ccc(C2=NCCN2)cc1 [compound 25, 2-(4-iso-propyloxyphenyl)-4,5-dihydro-1H-imidazole] |  |  |  |  |  |  |  | 151 to 153 |  |
| CCCCOc1ccc(C2=NCCN2)cc1 [compound 26, 2-(4-Butyloxyphenyl)-4,5-dihydro-1H-imidazole] | >37.98 | 2.63 | > 100 |  | 48.7 |  |  | 122 to 123 |  |
| CCCCCOc1ccc(C2=NCCN2)cc1 [compound 27, 8-Penthyloxyphenil-2-imidazoline] | 88.28 | < 1 | 71.3 | 1.90 | 37.5 |  |  | 129 to 131 |  |
| CCCCCCOc1ccc(C2=NCCN2)cc1 [compound 28, 8-Hexyloxypheny-2-imidazoline] | 166.31 |  | 29.2 | 1.16 | 25.1 |  |  | 133 to 135 |  |
| CCCCCCCOc1ccc(C2=NCCN2)cc1 [compound 29, 8-Hepthyloxyphenyl-2-imidazoline] | 106.21 |  | 21.5 |  |  |  |  | 100 to 102 |  |
| CCCCCCCCOc1ccc(C2=NCCN2)cc1 [compound 30] | 48.11 |  | 9.72 |  | < 1 | active |  | 102 to 104 | active |
| CCCCCCCCCOc1ccc(C2=NCCN2)cc1 [compound 31] | 92.56 | < 1 | 50.6 | 2.40 | 21 |  |  | 103 to 105 |  |
| CCCCCCOc1ccc(-c2ncc[nH]2)cc1 [compound 33, 8-Hexyloxyphenyl-2-imidazole] | 25.21 | 3.4 | 85.7 |  | < 10 | active |  | 133 to 135 | active |
| CCCCCCCCOc1ccc(-c2ncc[nH]2)cc1 [compound 35, 8-Octyloxyphenyl-2-imidazole] | 14.92 | 2.69 | 40.2 |  |  | active |  | 117 to 119 | active |
| CCCCCCCCCOc1ccc(-c2ncc[nH]2)cc1 [compound 36, 8-Nonyloxyphenyl-2-imidazole] | 28.53 | 1.09 | 31.3 |  | < 1 | active |  |  | active |
| CCCCCCOc1ccc([C@@H](O)[C@@H](O)c2ccc(OCCCCCC)cc2)cc1 [compound 37, (1R,2S)-1,2-bis(4-hexyloxyphenyl)ethane-1,2-diol] |  | > 50 |  |  | > 50 | inactivity |  | 122 to 123 | inactivity |
| O=c1[nH]c2ccccc2nc1CBr [compound 38, 3-(Bromomethyl)quinoxalin-2(1H)-one] |  | > 50 |  |  | > 50 | no effect was detected |  | 224 to 226 | no effect was detected |
